Assay [1] concerns HADC100 ESC. Description: Flow cytometry of MSC surface markers after ESC to MSC differentiation with ALK-5 inhibitors. The settings on record: for triple positive for CD73, CD90 and CD105: co-expression analysis; for CD90 surface marker expression level / CD34 surface marker expression level / CD45 surface marker expression level / CD73 surface marker expression level / CD105 surface marker expression level: HADC100 ESC, SB525334 10 μM 5 days, GW788388 5 μM 5 days, ± standard deviation; for CD90 surface marker expression level: in %; for CD34 surface marker expression level / CD45 surface marker expression level / CD73 surface marker expression level / CD105 surface marker expression level: in % (unit assumed); for MSC differentiation / differentiating ES-MSC: overall statement of the discussion. Type of assay: cell-based, human. More on the design: key to CD90 surface marker expression level / CD105 surface marker expression level / CD34 surface marker expression level / CD45 surface marker expression level / CD73 surface marker expression level: % cells positive relative to isotype control background. As to the method: An overview of the differentiation process is provided in FIG. 1, panel K. To create cell clusters or embryoid bodies of uniform size, ESCs were removed from CellStart culture using Accutase® for 2-5 minutes until single cells were observed. […] After 24 hours, the cell clusters were suspended at 2.5-3×10^5 cells per ml in ultra-low adherent 6 well plates (Corning) in StemPro-34 serum free medium (ThermoFisher) supplemented with 2 mM L-glutamine (ThermoFisher Scientific), 50 μg/ml Ascorbic acid (Stemcell Technologies, Vancouver, Canada) and 1.8 μl/ml ITS-G (100× Insulin-Transferrin-Selenium; ThermoFisher); termed as “complete SP-34 medium”.
The medium was changed every 2 days by removing cell clusters into 15 ml sterile tubes and permitted to gravity settle for 10 minutes at room temperature. Most of the media was removed using a pipette to leave approximately 300-500 μl of medium. Freshly made medium (with the appropriate ALK5 inhibitor or DMSO) was replaced at the same volumes and well number into new ultra-low adherent plates.
After treatment with the appropriate ALK5 inhibitor, the cell clusters were removed by gravity settling and suspended in complete SP-34 medium supplemented with bFGF 20 ng/ml (without any ALK-5 inhibitor or DMSO) and transferred onto fibronectin (FN) coated (10 μg/ml; Fibronectin from human plasma, Sigma-Aldrich, St. Louis, MO) T75 cm^2 flasks (passage zero (P0)). The emerging cells and remaining cell clusters were exposed to Accutase® for 5-10 minutes, gently triturated and counted. The cells were seeded at […] in T75 FN coated flask (P1) and medium changed every 3-4 days until 80-90% confluence. At this point, the cells were detached using Accutase® for continued culture, screened for surface marker phenotype characterization (flow cytometry), placed into 3D cultures to assess chondrogenic differentiation capacity, or preserved in liquid nitrogen.
Cells were detached using Accutase®, washed and suspended in FACS buffer at a concentration of 0.2×10^6 cells per 100 μl. A panel of CD molecules were used, each with the following fluorochromes: CD34-FITC, CD45-BV510, CD73-APC (BioLegend, San Diego, California) CD90-PE-Cy7, and CD105-BV650 (BD Biosciences, Franklin Lakes, New Jersey). Matching isotype control IgGs with the same fluorochrome conjugates were used for background gating. For compensation of spectral overlap, unstained cells, and individual tubes with each fluorochrome were incubated with Dynabeads to distinguish between positive and negative fluorochrome signals. Data was acquired with the Novocyte flow cytometer (ACEA Biosciences Inc. San Diego, CA) and analyzed using FlowJo software (version 10, FlowJo, LLC, Ashland, OR) to determine percentage positive signal for each molecule relative to isotype background non-specific signal controls.
A general note: A flow cytometer gives signals particle by particle.

Assay [2] deals with ex vivo osteoarthritic cartilage explants. Kind of assay: Ex vivo human osteoarthritic cartilage defect repair with fibrin-ECM constructs or pellets. The format is cell-based. The settings on record: implanted as hydrogel or pellets, 3 weeks, serum-free chondrogenic medium with TGFβ3 10 ng/ml. As to the method:
Monolayer cultured ES-MSC were suspended in a hydrogel wafer composed of collagen II (Innovative Research Inc. Novi, MI), hyaluronate (Supartz FX sodium hyaluronate, Seikagaku Corp. Tokyo, Japan), chondroitin sulfate (Sigma-Aldrich) and fibrin (Baxter Healthcare, Deerfield, IL) at a density of 20×10^6 cells per ml. The fibrinogen and thrombin components were prepared separately. To each fibrinogen component, 2 mg/ml sodium hyaluronate, 2 mg/ml chondroitin sulfate and 6 mg/ml collagen II was added (2× concentration of final). Cells were added to the thrombin component at a density of 40×10^6 cells per ml. Thrombin and fibrinogen components in individual syringes were attached to a Baxter DUO mixing syringe and extruded to form the coagulated constructs. The constructs were either directly implanted into ex vivo cartilage tissue or coagulated in 6 well tissue culture plates for 4 to 8 minutes before 4-6 ml of chondrogenic medium was added. To prevent shrinkage of the constructs during culture, the gels were held on AdminPatch microneedle arrays (AdminMed, Sunnyvale, CA) for the duration of their culture.
Osteochondral tissues were obtained from patients ranging between 60 to 70 years of age undergoing total knee arthroplasty within 4-6 hours of surgery (approved by Scripps Institutional Review Board) as previous described. Cartilage disks (6 mm in diameter and ~2-3 mm thick) were harvested from the osteochondral specimens using a sterile dermal punch. The cartilage tissue was cultured in medium consisting of DMEM (Mediatech Inc., Manassas, VA) supplemented with 10% calf serum (Omega Scientific Inc., Tarzana, CA) and 1% Penicillin-Streptomycin-Gentamycin (Life Technologies, Carlsbad, CA). Cartilage disks were maintained in 6-well plates (2-4 per well) in 8 ml medium for 72 hours before creation of the surgical defect. A flame-sterilized stainless-steel burr was used create defects approximately 2×2 mm wide and 0.5 to 1 mm deep. These defects were filled with pellets or hydrogel constructs trimmed to size using 2 mm dermal biopsy punches. […]

Where [3] appears, read: HADC 100 ES-MSC, SB431542 10 μM 10 days, N=4.
The mark [4] stands for this setting: N=4, SB431542 10 μM 10 days, listed as SB43.
Setting [5] is: N=4, SB431542 10 μM 10 days, listed as SB52.

Where “and” joins values, the source holds several entries; their conditions need not be identical. Equal values may be shown once. Entries after “also recorded” stand apart in the source; their conditions may differ.

In the case of `NC(=O)c1ccc(-c2nc(-c3ccc4c(c3)OCO4)c(-c3ccccn3)[nH]2)cc1` [SB431542], in assay [1] (HADC 100 ES-MSC), the CD73 positive cells is 94±12% and 93.6±11.8%; the “triple positive for CD73, CD90 and CD105” value is recorded as 88±8%. In assay [1] (setting [3]), the CD90 positive cells is reported as 88±10% and the CD105 positive cells turned out to be 86±7%. In assay [1] (N=4, SB431542 10 μM 10 days), the “CD90 surface marker expression level” value came to 87.6±10.4, the “CD34 surface marker expression level” value worked out at 1.8 ± 0.9, the “CD45 surface marker expression level” value is 1.2 ± 0.5 and the “CD73 surface marker expression level” value was determined as 93.6 ± 11.8. In addition, the “CD105 surface marker expression level” value in assay [1] (N=4, SB431542 10 μM 10 days) is reported as 86.1±6.5. Moreover, in assay [1] (setting [4]), the “CD90 surface marker expression level” value is 87.6 ± 10.4 and the “CD105 surface marker expression level” value is 86.1 ± 6.5. In addition, the “MSC differentiation / differentiating ES-MSC” value in assay [1] is “equally effective”. The “cartilaginous neo-tissue formation in ex vivo osteoarthritic explants” value in assay [2] is reported as “formed equally well”.

Regarding `Cc1cccc(-c2[nH]c(C(C)(C)C)nc2-c2ccc3nccnc3c2)n1` [SB525334], the “triple positive for CD73, CD90 and CD105” value in assay [1] (HADC 100 ES-MSC) came to 87±8%. Besides, in assay [1] (N=4, SB431542 10 μM 10 days), the “CD90 surface marker expression level” value is 93.9±7.6, the “CD34 surface marker expression level” value came out at 1.9 ± 0.9, the “CD45 surface marker expression level” value stood at 1.5 ± 0.5 and the “CD73 surface marker expression level” value stood at 99.2 ± 1.0. Besides, in assay [1] (N=4, SB431542 10 μM 10 days), the “CD105 surface marker expression level” value came out at 85.4±12.2. In addition, in assay [1] (setting [5]), the “CD90 surface marker expression level” value is listed as 93.9 ± 7.6 and the “CD105 surface marker expression level” value is 85.4 ± 12.2. Besides, the “MSC differentiation / differentiating ES-MSC” value in assay [1] is “successfully induced MSC differentiation; also recorded: equally effective”. Further, the “cartilaginous neo-tissue formation in ex vivo osteoarthritic explants” value in assay [2] is reported as “formed equally well”.
